Results on 28 molecules are retold here after patent US20070142389A1, “PIPERIDINE DERIVATIVES” (PFIZER INC., priority 2005, published 2007).

Like-named read-outs stand apart in the source and are kept apart here.

Assay [1] deals with T1, human norepinephrine transporter (Homo sapiens, UniProt P23975).
T1 construct: expressed in transfected cells; host or cells: HEK-293
The assay is described as follows: hNET Receptor Binding ([125I]-RTI-55 displacement, HEK-293 membranes). The protocol:
Cell pastes of HEK-293 cells transfected with a human norepinephrine transporter cDNA were prepared. The cell pastes were resuspended in 400 to 700 mL of Krebs-HEPES assay buffer (25 mM HEPES, 122 mM NaCl, 3 mM KCl, 1.2 mM MgSO4, 1.3 mM CaCl2, and 11 mM glucose, pH 7.4) with a Polytron homogenizer at setting 7 for 30 seconds. Aliquots of membranes (5 mg/mL protein) were stored in liquid nitrogen until used.
The binding assay was set up in Beckman deep-well polypropylene plates with a total volume of 250 μL containing: compound of one of the Examples (10^−5M to 10^−12M), cell membranes, and 50 pM [^125I]-RTI-55 (Perkin Elmer, NEX-272; specific activity 2200 Ci/mmol). The reaction was incubated by gentle agitation for 90 minutes at room temperature and was terminated by filtration through Whatman GF/C filter plates using a Brandel 96-well plate harvester. Scintillation fluid (100 μL) was added to each well, and bound [^125I]-RTI-55 was determined using a Wallac Trilux Beta Plate Counter. Test compounds were run in duplicate, and specific binding was defined as the difference between binding in the presence and absence of 10 μM desipramine.
(§1) Excel and GraphPad Prism software were used for data calculation and analysis. IC50 values were converted to Ki values using the Cheng-Prusoff equation.

The target of assay [2] is T2, human serotonin transporter (Homo sapiens, UniProt P31645).
T2 construct: expressed in transfected cells; host or cells: HEK-293
Put plainly: hSERT Receptor Binding ([125I]-RTI-55 displacement, HEK-293 membranes). The protocol: Cell pastes of HEK-293 cells transfected with a human serotonin transporter cDNA were prepared. The cell pastes were resuspended in 400 to 700 mL of Krebs-HEPES assay buffer (25 mM HEPES, 122 mM NaCl, 3 mM KCl, 1.2 mM MgSO4, 1.3 mM CaCl2, and 11 mM glucose, pH 7.4) with a Polytron homogenizer at Setting 7 for 30 seconds. Aliquots of membranes (about 2.5 mg/mL protein) were stored in liquid nitrogen until used.
Assays were set up in FlashPlates pre-coated with 0.1 % PEI in a total volume of 250 μL containing: compound of one of the Examples (10^−5M to 10^−12M), cell membanes, and 50 pM [^125l]-RTI-55 (Perkin Elmer, NEX-272; specific activity 2200 Ci/mmol). The reaction was incubated and gently agitated for 90 minutes at room temperature, and terminated by removal of assay volume. Plates were covered, and bound [^125I]-RTI-55 was determined using a Wallac Trilux Beta Plate Counter. Test compounds were run in duplicate, and specific binding was defined as the difference between binding in the presence and absence of 10 μM citalopram.
as §1

Setting [3] is: hNET, HEK-293 cell membranes, 50 pM [125I]-RTI-55, Ki from IC50 by Cheng-Prusoff, read-out: NET Ki.
[4] abbreviates: hSERT, HEK-293 cell membranes, 50 pM [125I]-RTI-55, Ki from IC50 by Cheng-Prusoff, read-out: SERT Ki.

T2 sequence (P31645 whole entry): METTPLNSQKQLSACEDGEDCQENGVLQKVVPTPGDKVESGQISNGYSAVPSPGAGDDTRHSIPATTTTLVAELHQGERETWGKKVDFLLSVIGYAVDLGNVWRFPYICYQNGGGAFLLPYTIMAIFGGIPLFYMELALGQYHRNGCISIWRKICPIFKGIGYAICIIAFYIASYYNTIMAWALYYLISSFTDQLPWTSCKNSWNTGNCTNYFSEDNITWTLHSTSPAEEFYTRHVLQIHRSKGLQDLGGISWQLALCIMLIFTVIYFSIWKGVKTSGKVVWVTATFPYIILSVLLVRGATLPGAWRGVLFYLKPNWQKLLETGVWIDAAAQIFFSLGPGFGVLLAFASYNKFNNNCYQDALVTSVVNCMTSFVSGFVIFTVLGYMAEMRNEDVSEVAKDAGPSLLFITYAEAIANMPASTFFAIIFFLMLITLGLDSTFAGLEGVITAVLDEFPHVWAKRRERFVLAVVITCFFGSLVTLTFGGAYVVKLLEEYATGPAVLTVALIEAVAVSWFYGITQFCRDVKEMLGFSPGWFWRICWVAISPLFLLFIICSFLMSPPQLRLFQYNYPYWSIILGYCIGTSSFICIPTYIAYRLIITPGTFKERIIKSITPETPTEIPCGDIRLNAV
T1 sequence (P23975 whole entry): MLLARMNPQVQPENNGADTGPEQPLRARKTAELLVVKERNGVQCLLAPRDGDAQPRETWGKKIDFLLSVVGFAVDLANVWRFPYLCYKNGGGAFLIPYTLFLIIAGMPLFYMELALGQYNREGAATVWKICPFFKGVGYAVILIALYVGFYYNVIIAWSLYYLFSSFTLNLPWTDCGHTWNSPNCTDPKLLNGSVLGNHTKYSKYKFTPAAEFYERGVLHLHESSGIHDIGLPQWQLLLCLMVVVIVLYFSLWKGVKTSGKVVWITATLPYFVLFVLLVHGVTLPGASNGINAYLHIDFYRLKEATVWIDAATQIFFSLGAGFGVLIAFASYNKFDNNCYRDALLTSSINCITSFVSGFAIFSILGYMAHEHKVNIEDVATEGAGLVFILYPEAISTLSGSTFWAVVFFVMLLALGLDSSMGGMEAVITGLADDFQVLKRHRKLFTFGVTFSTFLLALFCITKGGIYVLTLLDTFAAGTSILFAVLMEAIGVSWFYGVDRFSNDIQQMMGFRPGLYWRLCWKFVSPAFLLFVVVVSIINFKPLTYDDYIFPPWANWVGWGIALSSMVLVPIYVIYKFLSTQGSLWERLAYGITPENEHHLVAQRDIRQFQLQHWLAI

`CCOc1ncccc1OC[C@@H]1CNCC[C@H]1c1ccc(F)cc1` (racemic) [Example 58, (±)-trans-2-Ethoxy-3-[4-(4-fluoro-phenyl)-piperidin-3-ylmethoxy]-pyridine]: the Ki (in general, the equilibrium dissociation constant of an inhibitor or competing ligand from its target) came out at 6.25 nM in assay [1] and 5.97 nM in assay [2].

Take `CCOc1ncccc1OC[C@@H]1CNCC[C@H]1c1cccc(F)c1` (racemic) [Example 59, (±)-trans-2-Ethoxy-3-[4-(3-fluoro-phenyl)-piperidin-3-ylmethoxy]-pyridine]: the figures for the Ki in assay [1] (setting [3]) and in assay [2] (setting [4]) were 4.38 nM and 10.7 nM, respectively.

For `CCCCc1ncccc1OC[C@@H]1CNCC[C@H]1c1ccccc1` (racemic) [Example 61, (±)-trans-2-Butyl-3-(4-phenyl-piperidin-3-ylmethoxy)-pyridine], the Ki in assay [1] (setting [3]) stood at 7.48 nM; in assay [2] (setting [4]), 23.8 nM.

Consider `CC(C)Cc1ncccc1OC[C@@H]1CNCC[C@H]1c1ccccc1` (racemic) [Example 62, (±)-trans-2-lsobutyl-3-(4-phenyl-piperidin-3-ylmethoxy)-pyridine], for which the Ki amounted to 46.6 nM in assay [1] (setting [3]) and 59.2 nM in assay [2] (setting [4]).

Turning to `c1ccc(-c2ccccc2OC[C@@H]2CNCC[C@H]2c2ccccc2)cc1` (relative stereo) [Example 47, trans-3-(Biphenyl-2-yloxymethyl)-4-phenyl-piperidine], the Ki came to 51.5 nM in assay [1] (setting [3]) and 1050 nM in assay [2] (setting [4]).

With `CCOc1ccccc1OC[C@@H]1CNCC[C@H]1c1ccccc1` (relative stereo) [Example 48, trans-3-(2-Ethoxy-phenoxymethyl)-4-phenyl-piperidine], the Ki in assay [1] (setting [3]) turned out to be 2.1 nM.

As for `CC(C)c1ccccc1OC[C@@H]1CNCC[C@H]1c1ccccc1` (relative stereo) [Example 49, trans-3-(2-lsopropyl-phenoxymethyl)-4-phenyl-piperidine], the Ki in assay [1] (setting [3]) came out at 19.5 nM; in assay [2] (setting [4]) it was 83.5 nM.

Turning to `CCCc1ccccc1OC[C@@H]1CNCC[C@H]1c1ccccc1` (relative stereo) [Example 50, trans-4-Phenyl-3-(2-propyl-phenoxymethyl)-piperidine], the figures for the Ki in assay [1] (setting [3]) and in assay [2] (setting [4]) were 16 nM and 33 nM, respectively.

With `c1ccc([C@@H]2CCNC[C@H]2COc2ccccc2C2CCCCC2)cc1` (relative stereo) [Example 51, trans-3-(2-Cyclohexyl-phenoxymethyl)-4-phenyl-piperidine], the Ki came to 75 nM in assay [1] (setting [3]) and 174 nM in assay [2] (setting [4]).

Turning to `CCOc1ccccc1OC[C@@H]1CNCC[C@@H]1c1ccccc1` (relative stereo) [Example 52, cis-3-(2-Ethoxy-phenoxymethyl)-4-phenyl-piperidine], the inhibition constant (Ki) worked out at 35 nM in assay [1] (setting [3]) and 96 nM in assay [2] (setting [4]).

`CCCc1ccccc1OC[C@@H]1CNCC[C@@H]1c1ccccc1` (relative stereo) [Example 53, cis-4-Phenyl-3-(2-propyl-phenoxymethyl)-piperidine]: the Ki amounted to 138 nM in assay [1] (setting [3]) and 267 nM in assay [2] (setting [4]).

Consider `CC(C)c1ccccc1OC[C@@H]1CNCC[C@@H]1c1ccccc1` (relative stereo) [Example 54, cis-3-(2-lsopropyl-phenoxymethyl)-4-phenyl-piperidine], for which the Ki in assay [1] (setting [3]) came to 36.5 nM; in assay [2] (setting [4]), 208 nM.

As to `c1ccc(-c2ccccc2OC[C@@H]2CNCC[C@@H]2c2ccccc2)cc1` (relative stereo) [Example 55, cis-3-(Biphenyl-2-yloxymethyl)-4-phenyl-piperidine], the Ki came to 215 nM in assay [1] (setting [3]) and 1050 nM in assay [2] (setting [4]).

Regarding `c1ccc([C@H]2CCNC[C@H]2COc2ccccc2C2CCCCC2)cc1` (relative stereo) [Example 56, cis-3-(2-Cyclohexyl-phenoxymethyl)-4-phenyl-piperidine], the Ki is 317 nM in assay [1] (setting [3]) and 542 nM in assay [2] (setting [4]).

For the molecule `CCOc1ncccc1OC[C@@H]1CNCC[C@@H]1c1ccc(F)cc1` (single isomer, unassigned) [Example 57, (+)-cis-2-Ethoxy-3-[4-(4-fluoro-phenyl)-piperidin-3-ylmethoxy]-pyridine], the Ki in assay [1] came to 193 nM; in assay [2], 34.8 nM.

As to `CCOc1ccccc1OC[C@H]1CNCC[C@@H]1c1ccccc1` [Example 3, (3R,4S)-3-(2-Ethoxy-phenoxymethyl)-4-phenyl-piperidine], the Ki in assay [1] (setting [3]) is 1260 nM; in assay [2] (setting [4]), 18.8 nM.

Turning to `FC(F)(F)c1ccc(OC[C@H]2CNCC[C@@H]2c2ccccc2)nc1` [Example 4, (3R,4S)-2-(4-Phenyl-piperidin-3-ylmethoxy)-5-trifluoromethyl-pyridine], the Ki stood at 1870 nM in assay [1] (setting [3]) and 15.3 nM in assay [2] (setting [4]).

With `Cc1ccc(OC[C@H]2CNCC[C@@H]2c2ccccc2)nc1` [Example 5, (3R,4S)-5-Methyl-2-(4-phenyl-piperidin-3-ylmethoxy)-pyridine], the inhibition constant Ki in assay [1] (setting [3]) is 2620 nM; in assay [2] (setting [4]), 2.29 nM.

In the case of `COc1ncccc1OC[C@H]1CNCC[C@@H]1c1ccccc1` [Example 6, (3R,4S)-2-Methoxy-3-(4-phenyl-piperidin-3-ylmethoxy)-pyridine], the Ki was found to be 3480 nM in assay [1] (setting [3]) and 0.52 nM in assay [2] (setting [4]).

Turning to `CCCOc1ncccc1OC[C@H]1CNCC[C@@H]1c1ccccc1` [Example 8, (3R,4S)-3-(4-Phenyl-piperidin-3-ylmethoxy)-2-propoxy-pyridine], the figures for the Ki in assay [1] (setting [3]) and in assay [2] (setting [4]) were 1330 nM and 17 nM, respectively.

Take `COCCOc1ncccc1OC[C@H]1CNCC[C@@H]1c1ccccc1` [Example 10, (3R,4S)-2-(2-Methoxy-ethoxy)-3-(4-phenyl-piperidin-3-ylmethoxy)-pyridine]: the Ki in assay [1] (setting [3]) came to 6260 nM; in assay [2] (setting [4]) it was 18.5 nM.

`Cn1nc(OC[C@H]2CNCC[C@@H]2c2ccccc2)cc1C(F)(F)F` [Example 13, (3R,4S)-3-(1-Methyl-5-trifluoromethyl-1 H-pyrazol-3-yloxymethyl)-4-phenyl-piperidine]: the inhibition constant Ki in assay [1] (setting [3]) worked out at 612 nM; in assay [2] (setting [4]) it was 2.69 nM.

In the case of `CC(C)COc1ncccc1OC[C@@H]1CNCC[C@H]1c1ccccc1` [Example 15, (3S,4R)-2-lsobutoxy-3-(4-phenyl-piperidin-3-ylmethoxy)-pyridine], the Ki in assay [1] (setting [3]) came out at 4.9 nM; in assay [2] (setting [4]) it was 20.7 nM.

Take `c1ccc([C@@H]2CCNC[C@H]2COc2cccnc2OC2CCOCC2)cc1` [Example 16, (3S,4R)-3-(4-Phenyl-piperidin-3-ylmethoxy)-2-(tetrahydro-pyran-4-yloxy)-pyridine]: the results for the Ki in assay [1] (setting [3]) and in assay [2] (setting [4]) were 293 nM and 680 nM, respectively.

Consider `CCOc1ccccc1OC[C@@H]1CNCC[C@H]1c1ccccc1` [Example 18, (3S,4R)-3-(2-Ethoxy-phenoxymethyl)-4-phenyl-piperidine], for which the Ki in assay [1] (setting [3]) came out at 1.75 nM.

With `FC(F)(F)c1ccc(OC[C@@H]2CNCC[C@H]2c2ccccc2)nc1` [Example 19, (3S,4R)-2-(4-Phenyl-piperidin-3-ylmethoxy)-5-trifluoromethyl-pyridine], the Ki amounted to 144 nM in assay [1] (setting [3]) and 29.1 nM in assay [2] (setting [4]).

As to `Cc1ccc(OC[C@@H]2CNCC[C@H]2c2ccccc2)nc1` [Example 20, (3S,4R)-5-Methyl-2-(4-phenyl-piperidin-3-ylmethoxy)-pyridine], the figures for the Ki in assay [1] (setting [3]) and in assay [2] (setting [4]) were 157 nM and 3.14 nM, respectively.

`Cn1nc(C(F)(F)F)cc1OC[C@@H]1CNCC[C@H]1c1ccccc1` [Example 21, (3S,4R)-3-(2-Methyl-5-trifluoromethyl-2H-pyrazol-3-yloxymethyl)-4-phenyl-piperidine]: the Ki stood at 1260 nM in assay [1] (setting [3]) and 63.8 nM in assay [2] (setting [4]).
